Experimental findings from ChEMBL document CHEMBL1201862, “PubChem BioAssay data set” (2004) are described below.

Common to all, as to experiment: inhibition of tumour cell growth, NCI panel, 48 h
Experiment [1] relates to CAKI-1.
Experiment [2] relates to CCRF-CEM.
For experiment [3], the system named is COLO 205.
The subject of experiment [4] is DU-145.
Experiment [5] relates to HCT-15.
Experiment [6] has as its system LOX IMVI.
The subject of experiment [7] is MDA-MB-435.
For experiment [8], the system named is MOLT-4.
Experiment [9] relates to NCI-H23.
The test system of experiment [10] is NCI/ADR-RES.
Experiment [11] relates to OVCAR-4.
The subject of experiment [12] is SF-268.
Experiment [13] concerns SF-295.
The subject of experiment [14] is SNB-19.
The test system of experiment [15] is SNB-75.
Experiment [16] deals with TK-10.
Experiment [17] relates to UACC-257.
In experiment [18] the test system is HL-60.
For experiment [19], the system named is SK-MEL-2.
Experiment [20] concerns SR.

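1) Cells in 96-well plates. 2) Compound, 48 h, 5 concentrations. 3) Linear interpolation between surrounding doses. 4) Unreached endpoint = highest concentration. Abbreviation: GI50, concentration required for 50% inhibition of growth.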 The source made the active and inactive calls. No stated cut-off is given here; in the data, active = GI50 up to about 1.1 µM and inactive = higher.

On to `COc1cc2c(cc1OC)CN1CCCc3cc(OC)c(OC)cc3C1C2` (configuration not stated), for which the GI50 in experiment [1] was 38.6 µM (inactive); in experiment [2], 48.9 µM (inactive); in [3], 40.9 µM (inactive); in experiment [4], 76 µM (inactive); in experiment [5], 41.6 µM; in [6], 25.4 µM (inactive). Besides, the GI50 is 18.1 µM (inactive) in experiment [7]; 88.1 µM (inactive) in experiment [8]; 52.4 µM (inactive) in experiment [9]; > 100 µM (inactive) in [10]; 62.4 µM (inactive) in experiment [11]; 61 µM (inactive) in experiment [12]. Further, the GI50 in [13] is 12.9 µM (inactive); in [14], 36.9 µM (inactive); in [15], 13.2 µM (inactive); in experiment [16], 51.4 µM (inactive); in experiment [17] it was 67.5 µM (inactive).

In the case of `O=C(Cn1c2c(c3ccccc31)CCCC2)N1CCCC1`, the GI50 in experiment [1] was > 100 µM (inactive); in experiment [3], > 100 µM (inactive); in [5], 80.7 µM; in experiment [18], 94.6 µM (inactive); in experiment [6] it was > 100 µM (inactive); in [7] it was 77.1 µM (inactive). Besides, the GI50 is > 100 µM (inactive) in experiment [9]; 96.4 µM (inactive) in experiment [10]; 27.4 µM (inactive) in experiment [11]; 61.8 µM (inactive) in experiment [13]; > 100 µM (inactive) in experiment [19]; > 100 µM (inactive) in experiment [14]. The GI50 in [20] is 88.9 µM (inactive); in experiment [16], > 100 µM (inactive); in [17], > 100 µM (inactive).

For `O=c1cc(CO)n(CCc2c[nH]c3ccccc23)cc1O`, the GI50 in experiment [1] is 46.2 µM (inactive); in experiment [2] it was 29.5 µM (inactive); in [3], 55 µM (inactive); in experiment [4], 28.2 µM (inactive); in experiment [5], 51.2 µM; in [6] it was > 100 µM (inactive). In addition, the GI50 in [7] is > 100 µM (inactive); in [8], 6.21 µM (inactive); in experiment [9], 73.8 µM (inactive); in experiment [10], 32.3 µM (inactive); in experiment [12], 20.7 µM (inactive); in experiment [13], > 100 µM (inactive). Besides, the GI50 in experiment [19] is 30.1 µM (inactive); in experiment [14], 37.1 µM (inactive); in [16], > 100 µM (inactive); in [17], > 100 µM (inactive).

Regarding `O=C1CSC(=S)N1c1ccc(F)cc1F`, the GI50 in experiment [1] was 45.3 µM (inactive); in [2] it was 25.6 µM (inactive); in experiment [3], 46.2 µM (inactive); in experiment [4], > 100 µM (inactive); in experiment [5] it was 36.2 µM; in experiment [6], 36.5 µM (inactive). Moreover, the GI50 was 35.6 µM (inactive) in experiment [7]; 46.5 µM (inactive) in experiment [9]; 42.2 µM (inactive) in experiment [10]; 49.2 µM (inactive) in experiment [11]; 44.6 µM (inactive) in experiment [12]; 44.8 µM (inactive) in [13]. Also, the GI50 in [19] is 61.2 µM (inactive); in [14] it was 76.6 µM (inactive); in experiment [15] it was 42.3 µM (inactive); in experiment [16], 94.4 µM (inactive); in experiment [17], 43.8 µM (inactive).

For `CC(C)(NC1=NCCO1)c1ccccc1`, the GI50 in experiment [1] is > 100 µM (inactive); in experiment [3], > 100 µM (inactive); in [4], > 100 µM (inactive); in [5], above 100 µM; in [6], > 100 µM (inactive); in [7] it was > 100 µM (inactive). Further, the GI50 in experiment [8], in experiment [9], in [10], in [11], in experiment [12] and in experiment [13] was > 100 µM (inactive) in each case. The GI50 was > 100 µM (inactive) in experiment [19]; 43.4 µM (inactive) in experiment [14]; > 100 µM (inactive) in experiment [15]; > 100 µM (inactive) in experiment [16]; > 100 µM (inactive) in experiment [17].
